Source: EP0741709B1, “AROMATIC 2-AMINO-IMIDAZOLE DERIVATIVES AS ALPHA-2A ADRENOCEPTOR AGONISTS” (Allergan Sales, Inc., priority 1994, dated 1995)

Target: T1, rat α2B adrenoceptor (Rattus norvegicus, UniProt P19328)
T1 construct: expressed in transfected cells; host or cells: CHO (CHO-RNG)
T1 sequence (P19328 1-453): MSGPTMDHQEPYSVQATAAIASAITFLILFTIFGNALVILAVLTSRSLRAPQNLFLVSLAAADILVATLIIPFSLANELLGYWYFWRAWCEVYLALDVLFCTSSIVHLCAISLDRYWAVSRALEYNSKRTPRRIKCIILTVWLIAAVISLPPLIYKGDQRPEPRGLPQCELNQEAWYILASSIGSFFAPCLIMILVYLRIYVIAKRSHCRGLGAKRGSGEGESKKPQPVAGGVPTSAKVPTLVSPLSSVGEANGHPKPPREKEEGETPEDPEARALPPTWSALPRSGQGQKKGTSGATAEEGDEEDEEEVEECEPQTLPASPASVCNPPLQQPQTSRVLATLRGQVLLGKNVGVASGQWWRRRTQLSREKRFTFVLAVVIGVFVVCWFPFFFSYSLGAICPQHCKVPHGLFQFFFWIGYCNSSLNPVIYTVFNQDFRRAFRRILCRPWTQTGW
Assay: Receptor binding assay, [3H]rauwolscine, CHO-RNG cell membranes
Conditions: 22°C, 30 minutes
Protocol: (§1) Cell preparation: Chinese hamster ovary (CHO) cells expressing the human α2A and human α2C (CHO-C10 and CHO-C4 respectively) receptors and CHO cells (CHO-RNG) expressing the rat α2B adrenoceptor were grown to near confluence in Dulbecco's modified Eagle's medium supplemented with 10% fetal bovine serum using standard cell culture methods. Cells were harvested by scraping and placed into cold buffer of the following composition: 50 mM Tris-HCl, 5 mM EDTA, pH 7.4). Cells were then homogenized with a Polytron homogenizer for 2 X 10 sec at setting #7, and centrifuged for 20 minutes at 49,000 x g. The pellet fraction was washed (resuspended in Tris-HCl, pH 8 buffer and centrifuged for 15-20 minutes at 49,000 x g) 2 times and stored at -100°C until binding assay.
Binding Studies: The radioligands [^3H]rauwolscine (specific activity 80 Ci/mmol) and [^3H]prazosin (specific activity 76 Ci/mmol) were obtained from New England Nuclear, Boston, MA. Frozen membrane pellet was resuspended in 25 mM glycine/glycine, pH 7.5 and incubated with radioligand under the following conditions: CHO-C10, CHO-RNG, CHO-C4-[^3H]rauwolscine, 22°C, 30 minutes; RKC-[^3H]rauwolscine, 0°C, 120 minutes; and, HCC-[^3H]prazosin, 22°C, 30 minutes in a final volume of 500 ul. At the end of the incubation period, the samples were filtered through glass filters (Whatman GF/B) in a 96 well cell harvester and rapidly washed four times with 4 mL of iced-cold 50 mM Tris-HCl buffer. The filters were then oven dried and transferred to scintillation vials containing 10 mL of Beckman's Ready Protein® scintillation cocktail for counting. Specific binding defined by 10 uM phentolamine for competition studies were as follows: 2.4 nM [^3H]brimonidine-RbICB 62%; 2.4 nM [^3H]rauwolscine-RbICB 75%; 2 nM [^3H]rauwolscine-RbKc 88%; 0.3 nM [^3H] rauwolscine-CHO-C10 99%; 0.4 nM [^3H]rauwolscine-CHO-RNG 99%, 0.3 nM [^3H]prazosin 87%; and 1 nM [^3H]rauwolscine-CHO-C4 90%. Protein concentrations were determined with a protein assay kit from Bio Rad. Binding isotherms, equilibrium dissociation and affinity constants were analyzed and determined by the non-linear least squares curve fitting programs EBDA (BioSoft) or AccuFit Competition/Saturation by Beckman.
as §1, with “α2A (CHO-C10)” for “α2A”, “and” for “and human α2C (CHO-C10 and CHO-C4 respectively) receptors and CHO cells (CHO-RNG) expressing”, “α2B(CHO-RNG) human α2Aadrenoceptors” for “α2B adrenoceptor”
The radioligands [^3H)rauwolscine (specific activity 80 Ci/mmol) and [^3H]prazosin (specific activity 76 Ci/mmol) were obtained from New England Nuclear, Boston, MA. Frozen membrane pellet was resuspended in 25 mM glycine/glycine, pH 7.4 and incubated with radioligand under the following conditions: CHO-C10, CHO-RNG, CHO-C4-[^3H]rauwolscine, 22°C, 30 min.; and, HCC-[^3H]prazosin, 22°C, 30 minutes in a final volume of 500 ul. At the end of the incubation period, the samples were filtered through glass fiber filters (Whatman GF/B) in a 96 well cell harvester and rapidly washed four times with 4 mL of iced-cold 50 mM Tris-CHl buffer. The filters were then oven dried and transferred to scintillation vials containing 5 mL of Beckman's Ready Protein® scintillation cocktail for counting. Specific binding defined by 10 uM phentolamine for competition studies were as follows: 0.3 nM[^3H] rauwolscine-CHO-C10 99%; 0.4 nM [^3H]rauwolscine-CHO-RNG 99%, and 0.3 nM [^3H] prazosin-HCC 87%. Protein concentrations were determined with a protein assay kit from Bio Rad. […]

| Ki [nM] | SMILES |
| --- | --- |
| 561 | Cc1ccccc1Nc1ncc[nH]1 |
| 587 | Clc1cccc(Cl)c1Nc1ncc[nH]1 |
| 434 | COc1ccc(Nc2ncc[nH]2)c(C)c1 |
| 1940 | Clc1ccccc1Nc1ncc[nH]1 |
| 152 | c1cc2c(c(Nc3ncc[nH]3)c1)CCCC2 |
| 1890 | c1ccc(Nc2ncc[nH]2)cc1 |
| 82 | Cc1c(Nc2ncc[nH]2)ccc2c1OCCO2 |
| 12900 | Brc1c(Nc2ncc[nH]2)ccc2nccnc12 |
| 1450 | Brc1ccccc1Nc1ncc[nH]1 |

| SMILES | Ki [nM] |
| --- | --- |
| Cc1c(Nc2ncc[nH]2)ccc2c1NCCO2 | 436 |
| Cc1c(Nc2ncc[nH]2)ccc2nccnc12 | 1160 |
